Data set [1] can be described thus: Thermal analysis (DSC and TGA). Format: physicochemical. The settings on record: DSC traces, samples of Example 6 and Example 2. How it is done: Differential scanning calorimetry (DSC) was performed using a TA Instruments Model Q-10 module with a Thermal Analyst controller. Data were collected and analyzed using TA Instruments Thermal Solutions software. A sample of about 1 mg was accurately weighed into an aluminum pan with lid. The sample was evaluated using a linear heating ramp of 5° C./min from ambient temperature to approximately 300° C. The DSC cell was purged with dry nitrogen during use. A representative DSC trace for a sample of a crystalline 1,2-ethanedisulfonic acid salt of biphenyl-2-ylcarbamic acid 1-[2-(2-chloro-4-{[(R)-2-hydroxy-2-(8-hydroxy-2-oxo-1,2-dihydroquinolin-5-yl)ethylamino]methyl}-5-methoxyphenylcarbamoyl)ethyl]piperidin-4-yl ester of Example 6 is shown in FIG. 1 and a representative DSC trace for a sample of Example 2 is shown in FIG. 2.
Thermogravimetric analysis (TGA) was performed using a TA Instruments Model Q-50 module equipped with high resolution capability. Data were collected and analyzed using TA Instruments Thermal Solutions software. A sample weighing about 10 mg was placed onto a platinum pan and scanned with a high resolution-heating rate from ambient temperature to 300° C. The balance and furnace chambers were purged with nitrogen flows during use. […]

Data set [2] in a line: Dynamic moisture sorption (DMS) assessment. Format: physicochemical. To be noted: for deliquescence: exposed to atmospheric moisture / DMS. How it is done: Dynamic Moisture Sorption Assessment
A dynamic moisture sorption (DMS) assessment (also known as a moisture sorption-desorption profile) was performed for a hand ground sample of a crystalline 1,2-ethanedisulfonic acid salt of biphenyl-2-ylcarbamic acid 1-[2-(2-chloro-4-{[(R)-2-hydroxy-2-(8-hydroxy-2-oxo-1,2-dihydroquinolin-5-yl)ethylamino]methyl}-5-methoxyphenylcarbamoyl)ethyl]piperidin-4-yl ester of Preparation 18 using a VTI atmospheric microbalance, SGA-100 system (VTI Corp., Hialeah, Fla. 33016). A sample size of approximately 10 mg was used and the humidity was set at the ambient value at the start of the analysis. A typical DMS analysis consisted of three scans: ambient to 2% relative humidity (RH), 2% RH to 90% RH, 90% RH to 5% RH at a scan rate of 5% RH/step. The mass was measured every two minutes and the RH was changed to the next value (+/−5% RH) when the mass of the sample was stable to within 0.01% for 5 consecutive points.

In the case of “Biphenyl-2-ylcarbamic Acid 1-[2-(2-Chloro-4-{[(R)-2-hydroxy-2-(8-hydroxy-2-oxo-1,2-dihydroquinolin-5-yl)ethylamino]methyl}-5-methoxyphenylcarbamoyl)-ethyl]piperidin-4-yl Ester 1,2-Ethanedisulfonic Acid Salt”, in data set [1], the “thermal stability: temperature below which no thermal decomposition” value was no less than 200 °C. Also, the sorption/desorption profile result in data set [2] (DMS) is “reversible”. For the same substance, the hygroscopicity in data set [2] (DMS trace, scans 2% RH to 90% RH, hand ground sample of Preparation 18) is less than 9%. Besides, the values for the deliquescence entry in data set [2] and in data set [2] (listed as crystalline 1,2-ethanedisulfonic acid salts of the compound of formula I) were “not deliquescent” and “not to be deliquescent”, respectively. Further, in data set [2] (humidity range of 40% RH to 75% RH), the weight gain entry was “less than 2.5%”.
